Results as given in article PMC11659749 (RSC Advances, 2024).
Converted amounts (≈) assume the structure as drawn.

Assays:
K. pneumonia ATCC 13883 [1] = experiment: Biofilm formation inhibition, crystal violet assay; format: cell-based, Klebsiella pneumoniae; conditions: at the corresponding MIC
MRSA ATCC 43300 [2] = experiment: Inhibition zone, MIC and MBC; format: cell-based, Staphylococcus aureus
P. aeruginosa ATCC 10145 [3] = experiment: Biofilm formation inhibition, crystal violet assay; format: cell-based, Pseudomonas aeruginosa; conditions: at the corresponding MIC
MRSA ATCC 43300 [4] = experiment: Biofilm formation inhibition, crystal violet assay; format: cell-based, Staphylococcus aureus; conditions: at the corresponding MIC
P. aeruginosa ATCC 10145 [5] = experiment: Inhibition zone, MIC and MBC; format: cell-based, Pseudomonas aeruginosa
K. pneumonia ATCC 13883 [6] = experiment: Inhibition zone, MIC and MBC; format: cell-based, Klebsiella pneumoniae
C. albicans ATCC 10231 [7] = experiment: Biofilm formation inhibition, crystal violet assay; format: cell-based, Candida albicans; conditions: at the corresponding MIC
C. albicans ATCC 10231 [8] = experiment: Inhibition zone, MIC and MBC; format: cell-based; conditions: Candida albicans, ATCC10231
E. coli ATCC 25922 [9] = experiment: Inhibition zone, MIC and MBC; format: cell-based
E. coli ATCC 25922 [10] = experiment: Biofilm formation inhibition, crystal violet assay; format: cell-based; conditions: at the corresponding MIC
[11] = test system: Clostridium difficile ATCC BAA 1870; experiment: MIC, broth microdilution; format: cell-based; conditions: Clostridioides difficile, BAA1870, Clostridium difficile ATCC BAA 1870
[12] = test system: E. coli JW55031 (TolC mutant); experiment: MIC, broth microdilution; format: cell-based; conditions: Escherichia coli
[13] = test system: C. albicans SS5314 (wild type); experiment: MIC, broth microdilution; format: cell-based; conditions: Candida albicans
[14] = test system: MRSA NRS384 (MRSA USA300); experiment: MIC, broth microdilution; format: cell-based, methicillin-resistant Staphylococcus aureus; conditions: Staphylococcus aureus
[15] = test system: Escherichia coli BW25113 (wild type); experiment: MIC, broth microdilution; format: cell-based
[16] = test system: Neisseria gonorrhoeae 181; experiment: MIC, broth microdilution; format: cell-based; conditions: Neisseria gonorrhoeae, 181, Neisseria gonorrhoeae 181
[17] = test system: Enterococcus faecalis ATCC 51299; experiment: MIC, broth microdilution; format: cell-based; conditions: ATCC51299
[18] = test system: methicillin-resistant Staphylococcus aureus; experiment: Time-kill assay; format: cell-based; conditions: 4 × MIC, 24 hours incubation at 37 °C
human erythrocytes = experiment: Hemolytic activity; format: cell-based; conditions: up to 64 μg mL^−1, 37 °C for 1 h
[19] = Staphylococcus aureus, ATCC43300|MRSA
[20] = Pseudomonas aeruginosa, ATCC10145
[21] = Klebsiella pneumoniae, ATCC13883

Row | Compound | MIC [11] [µg/mL] | MIC [12] [µg/mL] | MIC [13] [µg/mL] | MIC [14] [µg/mL] | MIC [15] [µg/mL] | MIC [16] [µg/mL] | MIC [17] [µg/mL] | further results
1 | CO/N=C(\C(=O)N[C@@H]1C(=O)N2C(C(=O)O)=C(CSc3nc(=O)c(=O)[nH]n3C)CS[C@H]12)c1csc(N)n1 [Ceftriaxone] |  |  |  |  |  |  |  | Inhibition of biofilm formation (%) (K. pneumonia ATCC 13883 [1]): 61.23 ± 0.22%; IZD (MRSA ATCC 43300 [2]; MRSA ATCC 43300, mean ± SD): 30.34 ± 1.24 millimeters; MBC (MRSA ATCC 43300 [2]; [19]): 8 µg/mL (≈ 14.4 µM); MIC (MRSA ATCC 43300 [2]; [19]): 8 µg/mL (≈ 14.4 µM); Inhibition of biofilm formation (%) (P. aeruginosa ATCC 10145 [3]): 74.39 ± 0.68%; Inhibition of biofilm formation (%) (MRSA ATCC 43300 [4]): 73.262 ± 0.21%; IZD (P. aeruginosa ATCC 10145 [5]; P. aeruginosa ATCC 10145, mean ± SD): 35 ±1.85 millimeters; MBC (P. aeruginosa ATCC 10145 [5]; [20]): 16 µg/mL (≈ 28.9 µM); MIC (P. aeruginosa ATCC 10145 [5]; [20]): 8 µg/mL (≈ 14.4 µM); IZD (K. pneumonia ATCC 13883 [6]; K. pneumonia ATCC 13883, mean ± SD): 34.34 ± 0.47 millimeters; MBC (K. pneumonia ATCC 13883 [6]; [21]): 8 µg/mL (≈ 14.4 µM); MIC (K. pneumonia ATCC 13883 [6]; [21]): 4 µg/mL (≈ 7.21 µM); Inhibition of biofilm formation (%) (C. albicans ATCC 10231 [7]): 82.50 ± 0.14%; MBC (C. albicans ATCC 10231 [8]): 31.2 µg/mL (≈ 56.3 µM); MIC (C. albicans ATCC 10231 [8]): 7.8 µg/mL (≈ 14.1 µM); IZD (E. coli ATCC 25922 [9]; E. coli ATCC 25922, mean ± SD): 36 ± 1.50 millimeters; MBC (E. coli ATCC 25922 [9]; Escherichia coli, ATCC25922): 32 µg/mL (≈ 57.7 µM); MIC (E. coli ATCC 25922 [9]; Escherichia coli, ATCC25922): 16 µg/mL (≈ 28.9 µM); Inhibition of biofilm formation (%) (E. coli ATCC 25922 [10]): 59.14 ± 0.16%
2 | CCCC#Cc1ccc(-n2nnc(C(C)=NNC(=N)N)c2C)cc1 [Compound 19, 2-(1-(5-Methyl-1-(4-(pent-1-yn-1-yl)phenyl)-1H-1,2,3-triazol-4-yl)ethylidene)hydrazine-1-carboximidamide] | 32 (≈ 98.9 µM) | 32 (≈ 98.9 µM) | 16 (≈ 49.5 µM) | 32 (≈ 98.9 µM) | > 64 | 64 (≈ 198 µM) | 8 (≈ 24.7 µM) | 
3 | CC(=NNC(=N)N)c1nnn(-c2ccc(C#CCC(C)C)cc2)c1C [Compound 20, 2-(1-(5-Methyl-1-(4-(4-methylpent-1-yn-1-yl)phenyl)-1H-1,2,3-triazol-4-yl)ethylidene)hydrazine-1-carboximidamide] | 8 (≈ 23.7 µM) | 8 (≈ 23.7 µM) | 8 (≈ 23.7 µM) | ≤ 4 | > 64 | 32 (≈ 94.8 µM) | 8 (≈ 23.7 µM) | 
4 | CCCCC#Cc1ccc(-n2nnc(C(C)=NNC(=N)N)c2C)cc1 [Compound 21, 2-(1-(1-(4-(Hex-1-yn-1-yl)phenyl)-5-methyl-1H-1,2,3-triazol-4-yl)ethylidene)hydrazine-1-carboximidamide] | 16 (≈ 47.4 µM) | 32 (≈ 94.8 µM) | 16 (≈ 47.4 µM) | 32 (≈ 94.8 µM) | > 64 | > 64 | 32 (≈ 94.8 µM) | 
5 | CCCCCCC#Cc1ccc(-n2nnc(C(C)=NNC(=N)N)c2C)cc1 [Compound 22, 2-(1-(1-(4-(Oct-1-yn-1-yl)phenyl)-5-methyl-1H-1,2,3-triazol-4-yl)ethylidene)hydrazine-1-carboximidamide] | 64 (≈ 175 µM) | 64 (≈ 175 µM) | 64 (≈ 175 µM) | 64 (≈ 175 µM) | > 64 | > 64 | 64 (≈ 175 µM) | 
6 | CC(=NNC(=N)N)c1nnn(-c2ccc(C#CC3CC3)cc2)c1C [Compound 24, 2-(1-(1-(4-(Cyclopropylethynyl)phenyl)-5-methyl-1H-1,2,3-triazol-4-yl)ethylidene)hydrazine-1-carboximidamide] | 64 (≈ 199 µM) | 64 (≈ 199 µM) | > 64 | 64 (≈ 199 µM) | > 64 | > 64 | > 64 | 
7 | CC(=NNC(=N)N)c1nnn(-c2ccc(C#CC3CCCC3)cc2)c1C [Compound 25, 2-(1-(1-(4-(Cyclopentylethynyl)phenyl)-5-methyl-1H-1,2,3-triazol-4-yl)ethylidene)hydrazine-1-carboximidamide] | > 64 | 64 (≈ 183 µM) | > 64 | 64 (≈ 183 µM) | > 64 | 64 (≈ 183 µM) | > 64 | 
8 | CC(=NNC(=N)N)c1nnn(-c2ccc(C#CC3CCCCC3)cc2)c1C [Compound 26, 2-(1-(1-(4-(Cyclohexylethynyl)phenyl)-5-methyl-1H-1,2,3-triazol-4-yl)ethylidene)hydrazine-1-carboximidamide] | 16 (≈ 44 µM) | 64 (≈ 176 µM) | 16 (≈ 44 µM) | 16 (≈ 44 µM) | > 64 | > 64 | 8 (≈ 22 µM) | 
9 | CC(=NNC(=N)N)c1nnn(-c2ccc(C#Cc3ccccc3)cc2)c1C [Compound 30, 2-(1-(5-Methyl-1-(4-(phenylethynyl)phenyl)-1H-1,2,3-triazol-4-yl)ethylidene)hydrazine-1-carboximidamide] | > 64 | 16 (≈ 44.8 µM) | 8 (≈ 22.4 µM) | ≤ 4 | > 64 | > 64 | 16 (≈ 44.8 µM) | time to complete bacterial eradication [18]: ≤ 24 h
10 | CC(=NNC(=N)N)c1nnn(-c2ccc(C#Cc3ccc(C)cc3)cc2)c1C [Compound 31, 2-(1-(5-Methyl-1-(4-(p-tolylethynyl)phenyl)-1H-1,2,3-triazol-4-yl)ethylidene)hydrazine-1-carboximidamide] | 2 (≈ 5.38 µM) | 4 (≈ 10.8 µM) | 2 (≈ 5.38 µM) | 8 (≈ 21.5 µM) | > 64 | > 64 | 8 (≈ 21.5 µM) | 
11 | OC(Cn1cncn1)(Cn1cncn1)c1ccc(F)cc1F [Fluconazole, reference compound] |  |  | 0.5 (≈ 1.63 µM) |  |  |  |  | 
12 | CNC(C)C1CCC(N)C(OC2C(N)CC(N)C(OC3OCC(C)(O)C(NC)C3O)C2O)O1 (stereo not shown) [Gentamicin, reference compound] |  | 0.25 (≈ 0.523 µM) |  |  |  |  |  | 
13 | CC(=O)NC[C@H]1CN(c2ccc(N3CCOCC3)c(F)c2)C(=O)O1 [Linezolid, reference compound] | 1 (≈ 2.96 µM) | 8 (≈ 23.7 µM) | > 64 | 1 (≈ 2.96 µM) |  | 64 (≈ 190 µM) | 1 (≈ 2.96 µM) | 
14 | CN(C)[C@@H]1C(O)=C(C(N)=O)C(=O)[C@@]2(O)C(O)=C3C(=O)c4c(O)cccc4[C@@](C)(O)[C@H]3C[C@@H]12 [Tetracycline, reference compound] |  |  |  |  |  | 2 (≈ 4.5 µM) |  | 
15 | CN[C@H](CC(C)C)C(=O)N[C@H]1C(=O)N[C@@H](CC(N)=O)C(=O)N[C@H]2C(=O)N[C@H]3C(=O)N[C@H](C(=O)N[C@H](C(=O)O)c4cc(O)cc(O)c4-c4cc3ccc4O)[C@H](O)c3ccc(c(Cl)c3)Oc3cc2cc(c3O[C@@H]2O[C@H](CO)[C@@H](O)[C@H](O)[C@H]2O[C@H]2C[C@](C)(N)[C@H](O)[C@H](C)O2)Oc2ccc(cc2Cl)[C@H]1O [Vancomycin, reference compound] | 1 (≈ 0.69 µM) | 16 (≈ 11 µM) | > 64 | 1 (≈ 0.69 µM) |  | > 64 | 64 (≈ 44.2 µM) | time to complete bacterial eradication [18]: about 24 hours
16 | O=C(O)c1cn(C2CC2)c2cc(N3CCNCC3)c(F)cc2c1=O [ciprofloxacin] |  |  |  |  |  |  |  | hemolytic activity (human erythrocytes): 15%
